Literature values as cited in US20160375234A1, “[…] METHODS AND COMPOSITIONS FOR DIAGNOSING AND TREATING BREAST CONDITIONS” (ATOSSA GENETIC INC., priority 2014, published 2016).

Test system: early-stage, HER2-overexpressing or -amplified breast cancer
Settings: patients with early-stage, presurgical

CS(=O)(=O)CCNCc1ccc(-c2ccc3ncnc(Nc4ccc(OCc5cccc(F)c5)c(Cl)c4)c3c2)o1 [lapatinib]
growth of breast premalignancy (including ADH and DCIS) and invasive cancer: suppressed growth
